Key:
DDR2 = molecular target: T1, DDR2 (Homo sapiens, UniProt Q16832); test: LanthaScreen Europium Kinase Binding assay, DDR2; details: 5 nM DDR2, 10 nM Kinase Tracer 178, 1 h at rt; Ki from IC50 by Cheng-Prusoff; read-out: Ki DDR2
T1 construct: purchased Life Technologies
T1 sequence (Q16832 22-855): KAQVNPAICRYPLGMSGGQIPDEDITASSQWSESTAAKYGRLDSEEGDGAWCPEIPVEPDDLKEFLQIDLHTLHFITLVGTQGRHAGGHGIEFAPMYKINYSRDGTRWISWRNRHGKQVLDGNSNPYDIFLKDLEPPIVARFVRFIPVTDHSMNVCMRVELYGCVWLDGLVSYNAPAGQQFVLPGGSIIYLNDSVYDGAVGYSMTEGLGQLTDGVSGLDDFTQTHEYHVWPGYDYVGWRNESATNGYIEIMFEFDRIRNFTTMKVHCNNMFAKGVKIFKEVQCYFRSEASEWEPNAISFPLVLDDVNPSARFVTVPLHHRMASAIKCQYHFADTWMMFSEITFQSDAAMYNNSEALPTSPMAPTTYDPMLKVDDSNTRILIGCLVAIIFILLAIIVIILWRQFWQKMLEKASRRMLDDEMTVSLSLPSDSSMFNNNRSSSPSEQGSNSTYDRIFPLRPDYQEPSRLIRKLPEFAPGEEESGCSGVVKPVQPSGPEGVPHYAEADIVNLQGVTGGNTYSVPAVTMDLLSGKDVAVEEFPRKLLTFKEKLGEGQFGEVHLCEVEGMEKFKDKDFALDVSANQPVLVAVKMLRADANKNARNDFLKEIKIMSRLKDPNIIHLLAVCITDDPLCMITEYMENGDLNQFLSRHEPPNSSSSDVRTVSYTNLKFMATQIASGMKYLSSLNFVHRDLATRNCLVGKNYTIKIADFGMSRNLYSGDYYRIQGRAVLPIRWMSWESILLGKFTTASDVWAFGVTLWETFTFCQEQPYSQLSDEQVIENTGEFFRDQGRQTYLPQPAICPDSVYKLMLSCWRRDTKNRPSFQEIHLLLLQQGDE
Description: (§1) DDR1 and DDR2 binding assays were performed using Life Technologies LanthaScreen™ Europium Kinase Binding assay. […] IC50 values were determined in GraphPad Prism 7.0 software, using 4 parameter model: log (inhibitor) vs. response. IC50 values were converted in Ki using the Cheng-Prusoff equation (Ki-IC50/(1+ [Tracer]/Kd).

DDR1 = molecular target: T2, DDR1 (Homo sapiens, UniProt Q08345); test: LanthaScreen Europium Kinase Binding assay, DDR1; details: 5 nM DDR1, 20 nM Kinase Tracer 178, 1 h at rt; Ki from IC50 by Cheng-Prusoff; read-out: Ki DDR1
T2 construct: purchased Carna Biosciences
T2 sequence (Q08345 19-913): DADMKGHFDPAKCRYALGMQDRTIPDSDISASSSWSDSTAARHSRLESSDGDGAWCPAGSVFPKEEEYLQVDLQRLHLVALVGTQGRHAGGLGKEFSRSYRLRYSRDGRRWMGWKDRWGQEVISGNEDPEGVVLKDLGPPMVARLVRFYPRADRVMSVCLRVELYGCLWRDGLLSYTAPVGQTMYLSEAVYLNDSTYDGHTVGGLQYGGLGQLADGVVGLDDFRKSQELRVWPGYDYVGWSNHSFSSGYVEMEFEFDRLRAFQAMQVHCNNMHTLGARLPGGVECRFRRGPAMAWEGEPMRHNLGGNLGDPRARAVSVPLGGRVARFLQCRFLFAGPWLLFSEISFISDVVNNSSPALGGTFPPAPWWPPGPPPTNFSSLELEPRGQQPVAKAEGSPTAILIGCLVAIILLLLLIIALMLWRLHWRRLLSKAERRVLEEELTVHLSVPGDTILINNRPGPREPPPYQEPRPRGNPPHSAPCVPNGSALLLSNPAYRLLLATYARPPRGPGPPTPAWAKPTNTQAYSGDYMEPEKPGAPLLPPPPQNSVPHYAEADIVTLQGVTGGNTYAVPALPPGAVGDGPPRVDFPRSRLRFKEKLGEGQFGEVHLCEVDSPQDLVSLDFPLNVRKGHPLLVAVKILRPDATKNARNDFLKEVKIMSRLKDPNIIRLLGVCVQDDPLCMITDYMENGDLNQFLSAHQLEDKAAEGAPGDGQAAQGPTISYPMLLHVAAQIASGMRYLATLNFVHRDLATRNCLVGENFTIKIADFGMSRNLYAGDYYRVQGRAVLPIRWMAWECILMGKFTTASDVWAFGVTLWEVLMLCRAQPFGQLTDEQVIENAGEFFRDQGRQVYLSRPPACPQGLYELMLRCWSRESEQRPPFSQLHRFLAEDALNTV
Description: as §1

Row | Compound | Ki (DDR2) | Ki (DDR1)
1 | CN(C(=O)Nc1cc(C(F)F)ccn1)C1CC2(C1)CN(C(=O)c1cnn3ccn(C)c13)C2 [Example 164, 3-(4-(difluoromethyl)pyridin-2-yl)-1-methyl-1-(2-(1-methyl-1H-imidazo[1,2-b]pyrazole-7-carbonyl)-2-azaspiro[3.3]heptan-6-yl)urea] | 25 to 100 nM | < 5 nM
2 | Cn1ccn2ncc(C(=O)N3CC4(CC(NC(=O)Nc5cc(C(F)(F)F)cc(C#N)n5)C4)C3)c12 [Example 168, 1-(6-cyano-4-(trifluoromethyl)pyridin-2-yl)-3-(2-(1-methyl-1H-imidazo[1,2-b]pyrazole-7-carbonyl)-2-azaspiro[3.3]heptan-6-yl)urea] | 5 to 25 nM | < 5 nM
3 | CN(C(=O)Nc1cncc(C(F)(F)F)c1)C1CC2(C1)CN(C(=O)c1cnn3ccn(C)c13)C2 [Example 169, 1-methyl-1-(2-(1-methyl-1H-imidazo[1,2-b]pyrazole-7-carbonyl)-2-azaspiro[3.3]heptan-6-yl)-3-(5-(trifluoromethyl)pyridin-3-yl)urea] | 5 to 25 nM | < 5 nM
4 | CN(C(=O)Nc1cc(C(F)(F)F)ncn1)C1CC2(C1)CN(C(=O)c1cnn3ccn(C)c13)C2 [Example 170, 1-methyl-1-(2-(1-methyl-1H-imidazo[1,2-b]pyrazole-7-carbonyl)-2-azaspiro[3.3]heptan-6-yl)-3-(6-(trifluoromethyl)pyrimidin-4-yl)urea] | > 100 nM | 5 to 25 nM
5 | Cc1ncc(C(F)(F)F)cc1NC(=O)NC1CC2(C1)CN(C(=O)c1cnn3ccn(C)c13)C2 [Example 171, 1-(2-(1-methyl-1H-imidazo[1,2-b]pyrazole-7-carbonyl)-2-azaspiro[3.3]heptan-6-yl)-3-(2-methyl-5-(trifluoromethyl)pyridin-3-yl)urea] | 5 to 25 nM | < 5 nM
6 | CN(C(=O)Nc1cncc(OC(F)(F)F)c1)C1CC2(C1)CN(C(=O)c1cnn3ccn(C)c13)C2 [Example 172, 1-methyl-1-(2-(1-methyl-1H-imidazo[1,2-b]pyrazole-7-carbonyl)-2-azaspiro[3.3]heptan-6-yl)-3-(5-(trifluoromethoxy)pyridin-3-yl)urea] | 5 to 25 nM | < 5 nM
7 | CN(C(=O)Nc1cncc(C(C)(F)F)c1)C1CC2(C1)CN(C(=O)c1cnn3ccn(C)c13)C2 [Example 173, 3-(5-(1,1-difluoroethyl)pyridin-3-yl)-1-methyl-1-(2-(1-methyl-1H-imidazo[1,2-b]pyrazole-7-carbonyl)-2-azaspiro[3.3]heptan-6-yl)urea] | 25 to 100 nM | < 5 nM
8 | Cn1ccn2ncc(C(=O)N3CC4(CC(N(CC(F)(F)F)C(=O)Nc5cccc(C(F)(F)F)c5)C4)C3)c12 [Example 174, 1-(2-(1-methyl-1H-imidazo[1,2-b]pyrazole-7-carbonyl)-2-azaspiro[3.3]heptan-6-yl)-1-(2,2,2-trifluoroethyl)-3-(3-(trifluoromethyl)phenyl)urea] | 5 to 25 nM | < 5 nM
9 | CN(C(=O)Nc1cncc(C(F)(F)F)c1)C1CC2(C1)CN(C(=O)c1cnn3ccncc13)C2 [Example 175, 1-methyl-1-(2-(pyrazolo[1,5-a]pyrazine-3-carbonyl)-2-azaspiro[3.3]heptan-6-yl)-3-(5-(trifluoromethyl)pyridin-3-yl)urea] | 25 to 100 nM | 5 to 25 nM

More lines, now with the values ahead:

Row | Ki (DDR2) | Ki (DDR1) | Compound
10 | 5 to 25 nM | < 5 nM | Cn1ccn2ncc(C(=O)N3CC4(CC(NC(=O)Nc5cc(C6CC6)ccn5)C4)C3)c12 [Example 155, 1-(4-cyclopropylpyridin-2-yl)-3-(2-(1-methyl-1H-imidazo[1,2-b]pyrazole-7-carbonyl)-2-azaspiro[3.3]heptan-6-yl)urea]
11 | 5 to 25 nM | < 5 nM | CN(C(=O)Nc1cc(C2CC2)ccn1)C1CC2(C1)CN(C(=O)c1cnn3ccn(C)c13)C2 [Example 156, 3-(4-cyclopropylpyridin-2-yl)-1-methyl-1-(2-(1-methyl-1H-imidazo[1,2-b]pyrazole-7-carbonyl)-2-azaspiro[3.3]heptan-6-yl)urea]
12 | 5 to 25 nM | < 5 nM | CN(C(=O)Nc1cncc(C2CC2)c1)C1CC2(C1)CN(C(=O)c1cnn3ccn(C)c13)C2 [Example 157, 3-(5-cyclopropylpyridin-3-yl)-1-methyl-1-(2-(1-methyl-1H-imidazo[1,2-b]pyrazole-7-carbonyl)-2-azaspiro[3.3]heptan-6-yl)urea]
13 | 5 to 25 nM | < 5 nM | [2H]C([2H])([2H])N(C(=O)Nc1cccc(C(F)(F)F)c1)C1CC2(C1)CN(C(=O)c1cnn3ccn(C)c13)C2 [Example 158, 1-(methyl-d3)-1-(2-(1-methyl-1H-imidazo[1,2-b]pyrazole-7-carbonyl)-2-azaspiro[3.3]heptan-6-yl)-3-(3-(trifluoromethyl)phenyl)urea]
14 | 5 to 25 nM | < 5 nM | O=C(Nc1cncc(C(F)(F)F)c1)NC1CC2(C1)CN(C(=O)c1ccnc3[nH]ncc13)C2 [Example 159, 1-(2-(1H-pyrazolo[3,4-b]pyridine-4-carbonyl)-2-azaspiro[3.3]heptan-6-yl)-3-(5-(trifluoromethyl)pyridin-3-yl)urea]
15 | 5 to 25 nM | 5 to 25 nM | Cn1ccc2ncnc(C(=O)N3CC4(CC(NC(=O)Nc5cccc(C(F)(F)F)c5)C4)C3)c21 [Example 160, 1-(2-(5-methyl-5H-pyrrolo[3,2-d]pyrimidine-4-carbonyl)-2-azaspiro[3.3]heptan-6-yl)-3-(3-(trifluoromethyl)phenyl)urea]
16 | 5 to 25 nM | < 5 nM | Cn1ccn2ncc(C(=O)N3CC4(CC(NC(=O)Nc5cccc(S(=O)(=O)C(F)(F)F)c5)C4)C3)c12 [Example 161, 1-(2-(1-methyl-1H-imidazo[1,2-b]pyrazole-7-carbonyl)-2-azaspiro[3.3]heptan-6-yl)-3-(3-((trifluoromethyl)sulfonyl)phenyl)urea]
17 | < 5 nM | < 5 nM | O=C(Nc1cccc(SC(F)(F)F)c1)NC1CC2(C1)CN(C(=O)c1ccnc3[nH]ncc13)C2 [Example 162, 1-(2-(1H-pyrazolo[3,4-b]pyridine-4-carbonyl)-2-azaspiro[3.3]heptan-6-yl)-3-(3-((trifluoromethyl)thio)phenyl)urea]
18 | 5 to 25 nM | 5 to 25 nM | O=C(Nc1ccc(C(F)(F)F)cn1)NC1CC2(C1)CN(c1cnc3[nH]ncc3c1)C2 [Example 163, 1-(2-(1H-pyrazolo[3,4-b]pyridin-5-yl)-2-azaspiro[3.3]heptan-6-yl)-3-(5-(trifluoromethyl)pyridin-2-yl)urea]
19 | 5 to 25 nM | < 5 nM | Cc1ncc(C(F)(F)F)cc1NC(=O)NC1CC2(C1)CN(C(=O)c1cnn3ccsc13)C2 [Example 165, 1-(2-methyl-5-(trifluoromethyl)pyridin-3-yl)-3-(2-(pyrazolo[5,1-b]thiazole-7-carbonyl)-2-azaspiro[3.3]heptan-6-yl)urea]
20 | 5 to 25 nM | < 5 nM | O=C(Nc1cccc(C(F)(F)F)c1)NC1CC2(C1)CN(C(=O)c1cnn3ccn(CC4COC4)c13)C2 [Example 166, 1-(2-(1-(oxetan-3-ylmethyl)-1H-imidazo[1,2-b]pyrazole-7-carbonyl)-2-azaspiro[3.3]heptan-6-yl)-3-(3-(trifluoromethyl)phenyl)urea]
21 | 5 to 25 nM | < 5 nM | O=C(Nc1cccc(C(F)(F)F)c1)NC1CC2(C1)CN(C(=O)c1cnn3ccn(C4COC4)c13)C2 [Example 167, 1-(2-(1-(oxetan-3-yl)-1H-imidazo[1,2-b]pyrazole-7-carbonyl)-2-azaspiro[3.3]heptan-6-yl)-3-(3-(trifluoromethyl)phenyl)urea]

Reference: patent US20260285855A1, “HETEROARYL DERIVATIVES AS DDRS INHIBITORS” (CHIESI FARMACEUTICI S.P.A., priority 2023, published 2026)
